Source: US20130071414A1, “ENGINEERED CD19-SPECIFIC T LYMPHOCYTES THAT COEXPRESS IL-15 AND AN INDUCIBLE CASPASE-9 BASED SUICIDE GENE FOR THE TREATMENT OF B-CELL MALIGNANCIES” (priority 2011, published 2013)

Assays:
[1] = tested on: iC9/CAR.19/IL-15^+ T cells expressing eGFP-FFLuc; test: In vivo validation of the suicide gene, Raji-engrafted mice with labeled iC9/CAR.19/IL-15^+ T cells; set-up: species or system SCID mice; conditions: Raji i.v., after CID i.p.
Procedure: In vivo validation of the suicide gene. To evaluate the functionality of the suicide gene, mice bearing tumor cells and receiving iC9/CAR.19/IL-15^+ T cells labeled with the eGFP-FFluc gene were treated with CID ([…]) i.p. 2 to 3 doses every other day.^27 CID treatment was initiated when the T-cell bioluminescent signal was exponentially increasing, indicating active expansion of the transgenic cells. Mice were then imaged as described above.
Mice were engrafted i.v. with Raji tumor cells and then infused with eGFP-FFLuc labeled iC9/CAR.19/IL-15^+ T cells. These cells localized and expanded at the tumor site by day 14 after infusion as assessed by bioluminescence measurement (FIG. 6b).

[2] = tested on: inducible caspase-9 suicide gene in iC9/CAR.19/IL-15^+ T cells; conditions: previous observation (ref 27); cited from earlier work

CC[C@H](C(=O)N1CCCC[C@H]1C(=O)O[C@H](CCc1ccc(OC)c(OC)c1)c1cccc(OCC(=O)NCC(CNC(=O)COc2cccc([C@@H](CCc3ccc(OC)c(OC)c3)OC(=O)[C@@H]3CCCCN3C(=O)[C@@H](CC)c3cc(OC)c(OC)c(OC)c3)c2)CN(C)C)c1)c1cc(OC)c(OC)c(OC)c1 [CID, AP20187]
T-cell bioluminescence after administration of the CID [1]: 1.3×10^5±3×10^4 p/s/cm^2/sr | Fraction of cells that escape apoptosis/necrosis shortly after exposure to the dimerizer drug [2]: < 10%
